According to patent US5534492A, “Muramyl peptide for the treatment of toxicity” (Peptech (UK) Limited, priority 1992, dated 1996):

Experiments:
Pyrogenicity = experiment: Pyrogenicity
From the text: Pyrogenicity is a problem which has caused difficulties for the exploitation of certain muramyl dipeptides. Pyrogenicity may be attenuated by appropriate formulations (see, for example, the liposomal formulations of U.S. Pat. Nos. 4,522,811 and 4,684,625), but in general it will be preferable to choose, for use in the present invention, a muramyl dipeptide which has low intrinsic pyrogenicity. […] Such an analogue is available, and is N-acetyl-glucosaminyl-N-acetyl-muramyl-L-alanyl-D-glutamic acid (GMDP-A), which is Compound III in U.S. Pat. No. 4,395,399, and whose structure is as follows: [drawing 5]

inbred C57 B1/6 mice = experiment: Acetaldehyde narcosis in inbred C57 B1/6 mice; format: in vivo; conditions: GMDPA IP daily for three days
Experimental: (§1) Outbred white mice were given three intraperitoneal injections of GMDP at daily intervals and challenged with ethanol (4.5 g/kg IP) after the last GMDP injection. Narcosis was defined as the time in the lateral position ("leglessness"). […] Each group contained 10 to 12 mice.
This example studies the influence of GMDPA on acetaldehyde narcosis in inbred C57 B1/6 mice. The procedure of Example 1 was generally followed except that GMDPA was injected IP daily for three days and acetaldehyde was given 1, 4, 8 or 12 days later.

outbred white mice = experiment: Duration of ethanol narcosis in outbred white mice; format: in vivo; conditions: GMDP at least 0.01 mg/kg IP, three daily injections; ethanol 4.5 g/kg IP; vs control
From the text: as §1
In this example, the influence of GMDPA and various GMDP or GMDPA analogues on ethanol narcosis was studied. The procedure of Example 1 was followed, except that instead of the GMDP, one of the following compounds was administered IP at 1 mg/kg daily for three days: […]

Water solubility = format: physicochemical
From the text: GMDP also has the particular advantage, shared with the other glucosaminyl-muramyl peptides of U.S. Pat. No. 4,395,399, of being water soluble: this is a real benefit for parenteral administration. The choice of this muramyl dipeptide which in many ways is contrary to the trend in the art. Both muroctasin and MTP-PE have been specifically synthesised to incorporate a lipophilic group, and many non-lipophile-substituted muramyl dipeptides have been formulated in lipophilic preparations such as liposomes (as in U.S. Pat. No. 4,522,811 and U.S. Pat. No. 4,684,625), purportedly to enhance the activity of the muramyl dipeptide. In the present invention, water solubility is preferred.

C57BL/6 mice = experiment: Duration of hexenal narcosis in C57BL/6 mice; format: in vivo
From the text: Cytochrome P450 -dependent monooxygenase activity induction in accordance with pharmacological testing of HEXENAL™ narcosis duration in mice.
In addition to the experiments, which have shown GMDP ability to interact directly with cytochrome P450 molecule as a substrate (in vitro) and to induce cytochrome P450 system in liver microsomes (GMDP effect in vivo), experiments for testing cytochrome P450 system according to the duration of HEXENAL™ narcosis in mice have been carried out. It is well known that HEXENAL™ is a substrate of cytochrome P450, and the duration of its narcotic effect clearly correlates with the rate of its oxidation in the liver cytochrome P450 system. The method of Example 6 was repeated, but instead of aniline and benzo(a)pyrene, the ability of the microsomes to metabolise HEXENAL™ was tested. The experiments performed have shown that GMDP in small doses is capable of inducing cytochrome P450 -dependent oxidation of HEXENAL™ (Tables 3 and 4).

mice [1] = experiment: Duration of HEXENAL (hexobarbital) narcosis in mice, oral GMDP; format: in vivo; conditions: for Effect % (M ± m): vs control
Experimental: This example studies the effect of GMDP on the duration of narcosis induced by hexobarbital.
GMDP was administered orally to mice 15 minutes before the intraperitoneal injection of hexobarbital (HEXENAL™) at 50 mg/kg. The duration of narcosis (preservation of the lateral position) was recorded.

[2] = system: liver microsomal cytochrome P450; experiment: Optical difference spectrum with liver microsomal cytochrome P450; format: binding; conditions: oxidised microsomes from phenobarbital-induced rat liver
From the text: The cytochrome P450 system is a system by means of which toxins are metabolised in the liver. A wide variety of substances combine with oxidised liver microsomal cytochrome P450 bringing about a change in absorbency. It has been shown that various drugs, substrates and inhibitors react with microsomal cytochrome P450 to give three characteristic types of spectral change.
The three types of spectral changes are as follows.
i) For substances such as ethylmorphine or hexobarbital, the minimum difference in the spectrum occurs at about 420 nm and the maximum at about 385-390 nm. These substances are designated type I compounds).
ii) For compounds such as aniline or nicotinamide, the minimum difference in the spectrum occurs at about 390-410 nm and the maximum at about 430 nm. These substances are designated type II compounds.
iii) Some compounds are apparently type II substrates but actually act by displacing endogenous type I substrates when added to microsomes. These compounds are designated reverse type I substrates.
It has been shown that, for a number of substrates, the apparent binding constants calculated from spectral changes are related to the actual binding of type I substrates at the active site.
Ks (spectral association constant) was 0.1 mM. This is Ks for the well known cytochrome P450 HEXENAL™.

mice [3] = experiment: Acute toxicity, LD50 test in mice; format: in vivo
From the text: This compound (Compound II in U.S. Pat. No. 4,395,399), also known as glycopin, has already undergone preclinical toxicity testing and pharmacokinetic investigations required for licensing for clinical use in the USSR. The acute toxicity in mice, measured by the LD50 test is 7 g/kg.

[4] = system: mice liver cytochrome P-450 system; experiment: Indices of activity of mice liver cytochrome P-450 system after GMDP injections; format: in vivo
Experimental: The experiments were performed on white male mice with a mass of […]. GMDP was dissolved in isotonic solution of sodium chloride and administered by means of intraperitoneal injection once a day for 3 days, with a dose of 20 mg/kg. A corresponding volume of the solvent was administered to control animals. Each group (test and control) consisted of 8 to 10 mice. Twenty-four hours after the last injection of the substances under test (test) and the solvent (control), the animals were killed, the liver was removed and its weight was determined. This was followed by the isolation of the microsomal fraction by means of differential centrifugation. The quality protein in it was determined according to the method of Lowry et al (Lowry et al, J. Biol. Chem., 193, 265-275 (1951)). Bovine serum albumin was used in the construction of calibrating plot. The content of cytochrome P450 and B5 in the liver microsomal fraction was determined by spectrophotometric method with the help of a `Hitachi-556` spectrophotometer. The rate of oxidation of aniline (p-hydroxylation) in microsomes in the presence of NADPH was determined spectrophotometrically on the basis of p-aminophenol which has formed already. The rate of oxidation of benzo(a)pyrene (BP) in liver microsomes was determined according to the intensity of fluorescence of the forming 3-oxibenzo (a) pyrene `Baird Nova` fluorimeter. The rate of hydroxylation of aniline and BP in microsomes was expressed in nmol of metabolites/nmol of cytochrome P450 per 1 minute, or in nmol of metabolites/mg of microsome protein per 1 minute. Statistical processing of the obtained data was performed with the use of Student's t-test.

[5] = system: cells of the reticulo-endothelial system; conditions: cited from earlier work
[6] = Placebo-controlled trial in colorectal surgery patients, blood bilirubin; format: in vivo, human; conditions: GMDP 1, 2 or 3 mg per day for 10 days
From the text: Over 200 patients were enrolled in a placebo-controlled trial to determine the effect of GMDP on the outcome of colorectal surgery. Many of these patients had undergone previous chemotherapy for the treatment of cancers, often over substantial periods of time, with the result that liver damage had occurred.
This was evidenced by such indicators as elevated bilirubin in their blood, resulting from the reduced ability of the liver to function as a detoxification organ. […] GMDP or placebo were administered for 10 days, and bilirubin levels in the blood were measured before and after the course of treatment. Bilirubin data were obtained from 182 of the subjects. It is clear that the average blood level of bilirubin decreased in the GMDP-treated group and the two asterisks indicate that this decrease was statistically highly significant (p=0.002). […] Blood levels of bilirubin before the trial were not different in the two groups.

outbred mice = experiment: Duration of acetaldehyde narcosis in outbred mice; format: in vivo; conditions: GMDP IP, three daily injections; acetaldehyde 450 mg/kg IP
Experimental: as §1
The procedure of Example 1 was followed but modified to study the duration of acetaldehyde narcosis. Acetaldehyde, at 450 mg/kg was administered IP after the last GMDP dose, instead of the ethanol.

[7] = GMDP 0.01 mg/kg × 3 days i.p, hexenal 50 mg/kg 24 hours after GMDP injections
[8] = GMDP i.p injection simultaneously with hexenal injection, 50 mg/kg
[9] = GMDP i.p. injection 10 min after hexenal injection, 50 mg/kg
[10] = GMDP i.p. injection 30 min before hexenal injection, 50 mg/kg
[11] = GMDP i.p. injection 60 min before hexenal injection, 50 mg/kg
[12] = GMDP per os 15 min before i.p injection of hexenal 50 mg/kg
[13] = GMDP 0.01 mg/kg orally 15 min before hexobarbital 50 mg/kg i.p.
[14] = GMDP 0.1 mg/kg orally 15 min before hexobarbital 50 mg/kg i.p.
[15] = GMDP 1.0 mg/kg orally 15 min before hexobarbital 50 mg/kg i.p.
[16] = 24 hours after GMDP 20 mg/kg × 3 days i.p.
[17] = GMDP relative to control, 20 mg/kg × 3 days
[18] = liver microsomes, 24 hours after GMDP 20 mg/kg × 3 days i.p.

N-acetyl-glucosaminyl-N-acetyl-muramyl-L-alanyl-D-glutamic acid [GMDPA]
pyrogenicity (Pyrogenicity): substantially non-pyrogenic | inhibition of acetaldehyde narcosis (inbred C57 B1/6 mice; acetaldehyde given 1, 4 or 8 days later): inhibition of narcosis occurred | inhibition of acetaldehyde narcosis (inbred C57 B1/6 mice; acetaldehyde given 12 days later): not 12

CC(=O)N[C@H]1[C@H](O[C@H]2[C@H](O[C@H](C)C(=O)N[C@@H](C)C(=O)N[C@H](CCC(=O)O)C(N)=O)[C@@H](NC(C)=O)C(O)O[C@@H]2CO)O[C@H](CO)[C@@H](O)[C@@H]1O (stereo partly drawn) [GMDP, N-acetyl-glucosaminyl-N-acetyl-muramyl-L-alanyl-D-isoglutamine]
duration of ethanol narcosis (outbred white mice): much shorter duration | water solubility (Water solubility): water soluble | Narcosis duration min. (M ± m) (C57BL/6 mice; [7]): 21.7 ± 5.2 min | Narcotic effect in % from control (C57BL/6 mice; [7]): 45% | Narcosis duration min. (M ± m) (C57BL/6 mice; [8]): 25.7 ± 4.9 min | Narcotic effect in % from control (C57BL/6 mice; [8]): 85% | Narcosis duration min. (M ± m) (C57BL/6 mice; [9]): 41.2 ± 3.3 min | Narcotic effect in % from control (C57BL/6 mice; [9]): 95% | Narcosis duration min. (M ± m) (C57BL/6 mice; [10]): 18.4 ± 1.5 min | Narcotic effect in % from control (C57BL/6 mice; [10]): 61% | Narcosis duration min. (M ± m) (C57BL/6 mice; [11]): 30.9 ± 5.7 min | Narcotic effect in % from control (C57BL/6 mice; [11]): 100% | Narcosis duration min. (M ± m) (C57BL/6 mice; [12]): 31.3 ± 4.9 min | Narcotic effect in % from control (C57BL/6 mice; [12]): 57% | Narcosis duration Min (M ± m) (mice [1]; [13]): 15.48 ± 4.93 min | Effect % (M ± m) (mice [1]; [13]): -74.01 ± 8.15% | Narcosis duration Min (M ± m) (mice [1]; [14]): 8.72 ± 2.98 min | Effect % (M ± m) (mice [1]; [14]): -85.59 ± 4.92% | Narcosis duration Min (M ± m) (mice [1]; [15]): 18.47 ± 4.82 min | Effect % (M ± m) (mice [1]; [15]): -69.47 ± 7.96% | shortening of the duration of hexobarbital-induced narcosis (mice [1]; average over all the doses investigated): ~4 fold | Ks (spectral association constant) [2]: 0.1 mM | type of optical difference spectrum [2]: type I optical difference spectrum | pyrogenicity (Pyrogenicity): sufficiently low not to have prevented its clinical evaluation | acute toxicity in mice, LD50 (mice [3]): 7000 mg/kg | Liver weight mg/g of the animal weight [4, 16]: 80.0 mg/g of the animal weight | Microsomal protein mg/g of liver weight [4, 16]: 5.8 ± 0.31 mg/g of liver weight | Aniline-hydroxylase (per mg of protein), % [4, 17]: 194% | Aniline-hydroxylase (per nmol of cyt. P-450), % [4, 17]: 178% | BP-hydroxylase (per mg of protein), % [4, 17]: 171% | BP-hydroxylase (per nmol of cyt P-450), % [4, 17]: 218% | Cytochrome P-450, % [4, 17]: 134% | Microsomal protein, % [4, 17]: 129% | Cytochrome P-450 nmol/mg of protein ([4]; liver microsomal fraction, 24 hours after GMDP 20 mg/kg × 3 days i.p.): 0.87 ± 0.06 nmol/mg of protein | Aniline-hydroxylase nmol/mg of protein per 1 minute [4, 18]: 1.20 ± 0.1 nmol/mg of protein per 1 minut | Aniline-hydroxylase nmol/nmol of cyt. P-450 per 1 minute [4, 18]: 1.05 ± 0.01 nmol/nmol of cyt. P-450 per 1 | BP-hydroxylase nmol/mg of protein per 1 minute [4, 18]: 0.6 ± 0.04 nmol/mg of protein per 1 minut | BP-hydroxylase nmol/nmol of cyt P-450 per 1 minute [4, 18]: 0.87 ± 0.09 nmol/nmol of cyt P-450 per 1 m | synthesis of the superoxide anion (O2^-) [5]: stimulates the synthesis of the superoxide anion | blood level of bilirubin after treatment vs placebo [6]: significantly different from bilirubin levels after placebo treatment | average blood level of bilirubin, after vs before treatment ([6]; p=0.002): decreased | duration of acetaldehyde narcosis (outbred mice): markedly shortened the duration of narcosis
